{"source": "patent US5462929A", "about": "“Treatment of psoriasis by administration of 4-carbamoyl-1-β-D-ribofuranosylimidszolium-5-oleate” (Asahi Kasei Kogyo Kabushiki Kaisha, priority 1991, dated 1995)", "key": {"[1]": {"conditions": "rat; cited from earlier work"}, "[2]": {"conditions": "clinical trials; cited from earlier work"}, "[3]": {"tested_on": "Normal human epidermal keratinocyte cells (NHEK)", "assay": "Microscopical observation of cultured keratinocyte cells", "type": "cell-based", "conditions": "0.8 and 4 μg/ml, days 5, 7, 9; ×76.5", "method": "(§1) Normal human epidermal keratinocyte cells\n(§2) (NHEK: human penile prepuce originated secondary cultured cells)\n(§3) (1) NHEK was subcultured according to the instruction described in the manual for Epi Pack, to obtain tertiary subcultured cells. Epi Pack medium on arrival was exchanged by fresh K-C,M to which added attached bovine pituitary gland extract (BPE), then NHEK was cultured at 37° C. and on the first day, tertiary cultivation was performed under the same conditions.\n(§4) Cultured, day 5, day 7 and day 9: Photographs were taken on the central part of the two plates of 24-well culture plate, and calculated the number of cells.\nMagnification of microscopic photographs is ×76.5 in each case."}, "mice": {"tested_on": "mice", "conditions": "cited from earlier work"}, "[4]": {"tested_on": "Normal human epidermal keratinocyte cells (NHEK)", "assay": "Growth inhibition on cultured human epidermal keratinocyte cells, Coulter counter method", "type": "cell-based", "conditions": "for Number of cells/cm^2: control 95.5", "method": "as §1, §2, §3\nOn the day of starting initial cultivation:\nNHEK, 2500 cells/cm^2 (5000 cell/well), was inoculated in six 24-well culture plates.\nas §4\nOn the remaining other plates, the medium was exchanged and mizoribine was added. (amount added: the same as above)\nMethod of calculating number of cells\nOn the cultivation, day 5, day 7 and day 9, respectively, one plate of 24-well culture plate was applied for calculating number of cells by Coulter counter, and the other one plate was applied for dye uptake method.\n(a) Measurement by Coulter counter\nEach well: washed with 0.2 ml of HEPES buffer saline\nadd 0.2 ml of trypsin/EDTA solution,\nallow to stand at room temperature for 10 minutes,\nthen tap the 24-well culture plate by solid face to remove\nadded 0.3 ml of trypsin neutralization solution and separated\nthe cells by pipetting.\ncalculation of cells by Coulter counter\n(counted particles over 7 μm .phi.)"}, "[5]": {"tested_on": "Normal human epidermal keratinocyte cells (NHEK)", "assay": "Growth inhibition on cultured human epidermal keratinocyte cells, dye uptake method"}, "rats": {"tested_on": "rats", "conditions": "cited from earlier work"}, "psoriasis vulgaris": {"tested_on": "psoriasis vulgaris", "assay": "Clinical trial on treatment of psoriasis (PASI, adverse effect, overall improvement, usefulness)", "type": "in vivo, human", "design": "key to usefulness: 1: extremely useful; 2: useful; 3: slightly useful; 4: useless; 5: worse; key to overall improvement rate: 1: significantly improved; 2: improved; 3: slightly improved; 4: no change; 5: exacerbation", "conditions": "300 mg/day oral", "description": "2. Subject: Patients of psoriasis.\n(1) Psoriasis vulgaris with median grade which satisfied within the following standard.\na) No consideration for the distinction of sex, inpatient and outpatient.\nb) aged over 15 and below 70.\nc) PASI [Psoriasis area and Severity Index; Darmtologica, 157; 238-244, 1978: Table 4] over 20 at initial stage of the test.\n(2) Following patients are omitted.\nb) patients who have suffered with severe bacterial, viral or mycotic infection.\nc) person with complication or anamesis of malignant tumor.\nd) person with cardiac disorder, renal disorder, blood disorder, gastrointestinal bleeding, peptic ulcer, and other serious complication, and anamesis.\ne) a person in pregnancy or in a lactation, and who suspects being pregnant.\nf) in addition, persons who are determined by the doctors-in-charge as unfit to participate.\n2) Term for dosage: 6 weeks\n3) Prohibited other concomitant drugs.\nConcomitant use of the following preparation and others are prohibited.\na) Oral dosage of methotrexate, other immunosuppressant, etretinate and steroid preparations.\nb) Ultraviolet treatment.\nc) Other medicament which seem to be effective for psoriasis [Chinese indigenous medicine (Kampo-Yaku), anti-allergic drug, etc.]\n2) Calculation method of PASI:\nPASI=0.1 (Eh+Ih+Dh)×Ah+0.3 (Et+It+Dt)×At+0.2 (Eu+Iu+Du)×Au+0.4 (El+Il+Dl)×Al\nDuring the period of administration of the drug, accompanied symptoms, which have newly appeared and were thought to be closely related to and can not be denied with the relation for the administered medicament, are checked and searched in details of the fact, the day appeared, the day disappeared, degree, treatment, result and relation with the test drug, and studied the presence of adverse effect.\nOn the treatment of administration of the drug after 6 weeks, the results were evaluated.\nConsidering the progress of PASI, following five degrees of evaluation were applied as compared with the condition before administration.\nConsidering the overall improvement and safety evaluation such as adverse effect, following five degrees of evaluation were applied."}, "[6]": {"conditions": "cited from earlier work"}, "[7]": {"tested_on": "rejection of the transplantation of an organ such as kidney", "conditions": "cited from earlier work"}, "[8]": {"conditions": "in vivo; cited from earlier work"}, "[9]": {"tested_on": "Normal human epidermal keratinocyte cells (NHEK)", "assay": "Growth inhibition on cultured human epidermal keratinocyte cells, Coulter counter method", "type": "cell-based", "conditions": "mizoribine over 20 μg/ml, constant level; initial concentration 2.5×10^3 cells/ml"}}, "note": "Like-named read-outs stand apart in the source and are kept apart here.", "data": [{"smiles": "NC(=O)c1ncn([C@@H]2O[C@H](CO)[C@@H](O)[C@H]2O)c1O", "note": "[Mizoribine, 4-carbamoyl-1-β-D-ribofuranosyl-imidazolium-5-olate]", "values": [{"measurement": "Dermal level compared with plasma level", "setting": "[1]", "value": "almost equal in plasma level"}, {"measurement": "Blood level", "setting": "[2]", "value": "approximately 1 μg/ml"}, {"measurement": "morphology of cells", "setting": "[3]", "value": "changed widely expanded shape"}, {"measurement": "LD50", "setting": "mice; female, i.m.", "value": "> 2800", "unit": "mg/kg"}, {"measurement": "LD50", "setting": "mice; female, i.v.", "value": "> 3042", "unit": "mg/kg"}, {"measurement": "LD50", "setting": "mice; female, p.o.", "value": "> 4883", "unit": "mg/kg"}, {"measurement": "LD50", "setting": "mice; female, s.c.", "value": "> 4883", "unit": "mg/kg"}, {"measurement": "LD50", "setting": "mice; male, i.m.", "value": "> 2800", "unit": "mg/kg"}, {"measurement": "LD50", "setting": "mice; male, i.v.", "value": "> 3042", "unit": "mg/kg"}, {"measurement": "LD50", "setting": "mice; male, p.o.", "value": "> 4883", "unit": "mg/kg"}, {"measurement": "LD50", "setting": "mice; male, s.c.", "value": "> 4883", "unit": "mg/kg"}, {"measurement": "Number of cells/cm^2", "setting": "[4]; 0.8 μg/ml, cultivation day 5, Coulter counter", "value": "69.7 ×10^3 cells/cm^2"}, {"measurement": "growth inhibition", "setting": "[4]; 4 μg/ml", "value": "significant growth inhibition was observed and cells were grown extremely slowly"}, {"measurement": "Number of cells/cm^2", "setting": "[4]; 4 μg/ml, cultivation day 5, Coulter counter", "value": "8.6 ×10^3 cells/cm^2"}, {"measurement": "growth inhibition", "setting": "[4]; 8 μg/ml", "value": "significant growth inhibition was observed"}, {"measurement": "Number of cells/cm^2", "setting": "[4]; 20 μg/ml, cultivation day 5, Coulter counter", "value": "4.5 ×10^3 cells/cm^2"}, {"measurement": "inhibition at 0.8 µg/mL", "setting": "[4]; Homo sapiens, NHEK, 120 h, 0.8 μg/ml, cultivation day 5, Coulter counter, read-out: Inhibition rate", "value": 27, "unit": "%"}, {"measurement": "inhibition at 4 µg/mL", "setting": "[4]; Homo sapiens, NHEK, 120 h, 4 μg/ml, cultivation day 5, Coulter counter, read-out: Inhibition rate", "value": 91, "unit": "%"}, {"measurement": "inhibition at 20 µg/mL", "setting": "[4]; Homo sapiens, NHEK, 120 h, 20 μg/ml, cultivation day 5, Coulter counter, read-out: Inhibition rate", "value": 95, "unit": "%"}, {"measurement": "inhibition of growth of human epidermal keratinocyte cells at concentration presumed to be reached in clinical use", "setting": "[4]; blood level approximately 1 μg/ml", "value": "effective for significant inhibition of growth of human epidermal keratinocyte cells"}, {"measurement": "growth inhibition rate, dye uptake method compared with Coulter counter method", "setting": "[5]; mizoribine addition", "value": "slightly lower growth inhibition rate"}, {"measurement": "OD665 value", "setting": "[5]; where no difference in number of cells vs control by Coulter counter, lower level of concentration", "value": "Significant increase in the value at OD665"}, {"measurement": "LD50", "setting": "rats; female, i.m.", "value": "> 2800", "unit": "mg/kg"}, {"measurement": "LD50", "setting": "rats; female, i.v.", "value": "> 2606", "unit": "mg/kg"}, {"measurement": "LD50", "setting": "rats; female, s.c.", "value": "> 3975", "unit": "mg/kg"}, {"measurement": "LD50", "setting": "rats; male, i.m.", "value": "> 2800", "unit": "mg/kg"}, {"measurement": "LD50", "setting": "rats; male, i.v.", "value": "> 2572", "unit": "mg/kg"}, {"measurement": "LD50", "setting": "rats; male, p.o.", "value": "> 3100", "unit": "mg/kg"}, {"measurement": "LD50", "setting": "rats; male, s.c.", "value": "> 4161", "unit": "mg/kg"}, {"measurement": "overall improvement rate", "setting": "psoriasis vulgaris; after 6 weeks", "value": 2}, {"measurement": "usefulness", "setting": "psoriasis vulgaris; after 6 weeks, overall improvement and safety", "value": 2}, {"measurement": "Adverse effect", "setting": "psoriasis vulgaris; individual patients No. 1-4, 6 weeks", "value": "None"}, {"measurement": "PASI post", "setting": "psoriasis vulgaris; patient No. 1, PASI pre 20, 6 weeks", "value": 12}, {"measurement": "PASI post", "setting": "psoriasis vulgaris; patient No. 2, PASI pre 41.4, 6 weeks", "value": 20}, {"measurement": "PASI post", "setting": "psoriasis vulgaris; patient No. 3, PASI pre 24.3, 6 weeks", "value": 14}, {"measurement": "PASI post", "setting": "psoriasis vulgaris; patient No. 4, PASI pre 21, 6 weeks", "value": 12}, {"measurement": "solubility in water", "setting": "[6]", "value": "easily soluble in water"}, {"measurement": "immunosuppressive activity / rejection of organ transplantation", "setting": "[7]", "value": "suppresses the rejection of the transplantation of an organ such as kidney"}, {"measurement": "blood accumulation residue", "setting": "[8]", "value": "lower blood accumulation residue"}, {"measurement": "nephrotoxicity", "setting": "[8]", "value": "no nephrotoxicity"}, {"measurement": "transfer into brain", "setting": "[8]", "value": "less transfer into brain"}, {"measurement": "number of cells", "setting": "[9]", "value": "approximately 4×10^3 cells/ml"}]}]}
